Laboratory results reported in the NIST ThermoML archive (doi:10.1016/j.fluid.2014.10.015).

Settings: for mass density / viscosity: Liquid; for mass density: Vibrating tube method; for viscosity: Concentric cylinders viscometry; for surface tension liquid-gas: Pendant drop shape

CC(=O)[O-].CCCCn1cc[n+](C)c1 [1-butyl-3-methylimidazolium acetate]
Settings | mass density [kg/m3] | viscosity [mPa·s]
273.15 K, 101 kPa | 1068.3 | –
273.15 K, 101.33 kPa | 1068.29 | –
273.15 K, 238 kPa | 1068.35 | –
273.15 K, 5002 kPa | 1070.1 | –
273.15 K, 10020 kPa | 1071.93 | –
273.15 K, 19968 kPa | 1075.5 | –
273.15 K, 29945 kPa | 1079.01 | –
273.15 K, 40001 kPa | 1082.46 | –
273.15 K, 49987 kPa | 1085.81 | –
273.15 K, 59935 kPa | 1089.07 | –
273.15 K, 69985 kPa | 1092.29 | –
273.15 K, 79928 kPa | 1095.39 | –
273.15 K, 90040 kPa | 1098.47 | –
273.15 K, 99956 kPa | 1101.42 | –
273.15 K, 109260 kPa | 1104.11 | –
273.15 K, 119925 kPa | 1107.11 | –
273.15 K, 129945 kPa | 1109.85 | –
273.15 K, 139956 kPa | 1112.52 | –
278.15 K, 101.33 kPa | – | 3157.5
278.17 K, 101.33 kPa | 1065.11 | –
283.12 K, 747 kPa | 1062.18 | –
283.13 K, 5103 kPa | 1063.85 | –
283.15 K, 101 kPa | 1061.93 | –
283.15 K, 101.33 kPa | – | 1818.3
283.15 K, 59694 kPa | 1083.4 | –
283.15 K, 70000 kPa | 1086.8 | –
283.15 K, 79404 kPa | 1089.83 | –
283.15 K, 90034 kPa | 1093.15 | –
283.15 K, 98553 kPa | 1095.75 | –
283.15 K, 109979 kPa | 1099.13 | –
283.15 K, 120352 kPa | 1102.1 | –
283.15 K, 129998 kPa | 1104.78 | –
283.15 K, 139706 kPa | 1107.39 | –
283.16 K, 9902 kPa | 1065.67 | –
283.16 K, 29987 kPa | 1073.08 | –
283.16 K, 39574 kPa | 1076.5 | –
283.16 K, 50021 kPa | 1080.12 | –
283.17 K, 101.33 kPa | 1061.96 | –
283.17 K, 19845 kPa | 1069.38 | –
293.13 K, 99228 kPa | 1090.59 | –
293.13 K, 110000 kPa | 1093.89 | –
293.13 K, 120552 kPa | 1097.03 | –
293.13 K, 130029 kPa | 1099.77 | –
293.13 K, 139794 kPa | 1102.51 | –
293.14 K, 19892 kPa | 1063.32 | –
293.14 K, 89975 kPa | 1087.68 | –
293.15 K, 101 kPa | 1055.7 | –
293.15 K, 101.33 kPa | 1055.7 | 689.5
293.15 K, 928 kPa | 1056.02 | –
293.15 K, 10042 kPa | 1059.57 | –
293.15 K, 29991 kPa | 1067.08 | –
293.15 K, 50024 kPa | 1074.3 | –
293.15 K, 59451 kPa | 1077.57 | –
293.15 K, 70011 kPa | 1081.16 | –
293.15 K, 79858 kPa | 1084.42 | –
293.16 K, 4731 kPa | 1057.51 | –
293.16 K, 39318 kPa | 1070.48 | –
298.13 K, 119989 kPa | 1094.32 | –
298.14 K, 19965 kPa | 1060.4 | –
298.14 K, 59928 kPa | 1075.03 | –
298.15 K, 101 kPa | 1052.59 | –
298.15 K, 101.33 kPa | 1052.59 | 447.5
298.15 K, 1002 kPa | 1052.95 | –
298.15 K, 10002 kPa | 1056.52 | –
298.15 K, 29947 kPa | 1064.19 | –
298.15 K, 49953 kPa | 1071.51 | –
298.15 K, 70002 kPa | 1078.49 | –
298.15 K, 89954 kPa | 1085.08 | –
298.15 K, 109924 kPa | 1091.31 | –
298.15 K, 129954 kPa | 1097.2 | –
298.15 K, 139957 kPa | 1100.01 | –
298.16 K, 5001 kPa | 1054.55 | –
298.16 K, 39934 kPa | 1067.89 | –
298.16 K, 80006 kPa | 1081.84 | –
298.16 K, 99359 kPa | 1088.06 | –
313.13 K, 101.33 kPa | 1043.35 | –
313.13 K, 20418 kPa | 1051.65 | –
313.13 K, 30021 kPa | 1055.44 | –
313.13 K, 39510 kPa | 1059.09 | –
313.13 K, 50039 kPa | 1063.04 | –
313.14 K, 59562 kPa | 1066.53 | –
313.14 K, 139775 kPa | 1092.44 | –
313.15 K, 101 kPa | 1043.35 | –
313.15 K, 101.33 kPa | – | 155
313.15 K, 70013 kPa | 1070.25 | –
313.15 K, 119744 kPa | 1086.54 | –
313.15 K, 129979 kPa | 1089.6 | –
313.16 K, 10222 kPa | 1047.54 | –
313.16 K, 79427 kPa | 1073.52 | –
313.16 K, 89989 kPa | 1077.08 | –
313.16 K, 98994 kPa | 1080.03 | –
313.16 K, 109981 kPa | 1083.53 | –
313.17 K, 5238 kPa | 1045.49 | –
313.18 K, 1226 kPa | 1043.82 | –
333.13 K, 101.33 kPa | 1031.21 | –
333.14 K, 9567 kPa | 1035.37 | –
333.15 K, 101 kPa | 1031.21 | –
333.15 K, 101.33 kPa | – | 53.5
333.15 K, 628 kPa | 1031.45 | –
333.15 K, 4971 kPa | 1033.37 | –
333.15 K, 20116 kPa | 1039.9 | –
333.15 K, 29979 kPa | 1044.01 | –
333.15 K, 49981 kPa | 1052.04 | –
333.15 K, 59681 kPa | 1055.77 | –
333.15 K, 70024 kPa | 1059.64 | –
333.15 K, 79610 kPa | 1063.12 | –
333.16 K, 39561 kPa | 1047.91 | –
333.16 K, 89976 kPa | 1066.77 | –
333.17 K, 99080 kPa | 1069.88 | –
333.17 K, 109991 kPa | 1073.48 | –
333.17 K, 120185 kPa | 1076.74 | –
333.17 K, 129974 kPa | 1079.75 | –
333.17 K, 139981 kPa | 1082.73 | –
343.16 K, 101.33 kPa | 1025.2 | –
353.12 K, 1410 kPa | 1019.9 | –
353.12 K, 139714 kPa | 1072.82 | –
353.13 K, 120068 kPa | 1066.76 | –
353.13 K, 130015 kPa | 1069.89 | –
353.14 K, 4959 kPa | 1021.56 | –
353.14 K, 99015 kPa | 1059.73 | –
353.14 K, 109983 kPa | 1063.46 | –
353.15 K, 101 kPa | 1019.28 | –
353.15 K, 101.33 kPa | 1019.28 | 24.4
353.15 K, 60022 kPa | 1045.25 | –
353.15 K, 70021 kPa | 1049.15 | –
353.15 K, 80038 kPa | 1052.92 | –
353.15 K, 90002 kPa | 1056.56 | –
353.16 K, 9951 kPa | 1023.86 | –
353.16 K, 49992 kPa | 1041.22 | –
353.17 K, 20183 kPa | 1028.49 | –
353.17 K, 29998 kPa | 1032.8 | –
353.18 K, 39534 kPa | 1036.88 | –
373.14 K, 19875 kPa | 1017.03 | –
373.14 K, 139805 kPa | 1063.23 | –
373.15 K, 101 kPa | 1007.58 | –
373.15 K, 101.33 kPa | – | 13.8
373.15 K, 9977 kPa | 1012.37 | –
373.15 K, 99180 kPa | 1049.72 | –
373.15 K, 110012 kPa | 1053.53 | –
373.15 K, 120856 kPa | 1057.2 | –
373.15 K, 129989 kPa | 1060.16 | –
373.16 K, 4871 kPa | 1009.91 | –
373.16 K, 29995 kPa | 1021.67 | –
373.16 K, 49968 kPa | 1030.42 | –
373.16 K, 59224 kPa | 1034.29 | –
373.16 K, 90022 kPa | 1046.37 | –
373.17 K, 2297 kPa | 1008.66 | –
373.17 K, 39711 kPa | 1025.99 | –
373.17 K, 69994 kPa | 1038.66 | –
373.18 K, 79589 kPa | 1042.42 | –
393.13 K, 5180 kPa | 998.69 | –
393.14 K, 60153 kPa | 1024.29 | –
393.14 K, 69980 kPa | 1028.4 | –
393.14 K, 80125 kPa | 1032.49 | –
393.14 K, 120002 kPa | 1047.09 | –
393.15 K, 101 kPa | 996.11 | –
393.15 K, 3086 kPa | 997.63 | –
393.15 K, 10081 kPa | 1001.16 | –
393.15 K, 20117 kPa | 1006.09 | –
393.15 K, 30011 kPa | 1010.81 | –
393.15 K, 40130 kPa | 1015.49 | –
393.15 K, 49985 kPa | 1019.89 | –
393.15 K, 90011 kPa | 1036.33 | –
393.15 K, 109214 kPa | 1043.37 | –
393.15 K, 130005 kPa | 1050.39 | –
393.16 K, 99789 kPa | 1039.98 | –
393.16 K, 139958 kPa | 1053.52 | –
413.12 K, 2006 kPa | 985.88 | –
413.12 K, 5092 kPa | 987.51 | –
413.13 K, 20186 kPa | 995.28 | –
413.14 K, 30014 kPa | 1000.15 | –
413.14 K, 40204 kPa | 1005.02 | –
413.14 K, 49979 kPa | 1009.54 | –
413.14 K, 60179 kPa | 1014.09 | –
413.14 K, 70022 kPa | 1018.33 | –
413.14 K, 99791 kPa | 1030.18 | –
413.14 K, 119957 kPa | 1037.4 | –
413.14 K, 139956 kPa | 1043.92 | –
413.15 K, 101 kPa | 984.86 | –
413.15 K, 79800 kPa | 1022.54 | –
413.15 K, 90200 kPa | 1026.45 | –
413.15 K, 109956 kPa | 1033.9 | –
413.15 K, 129954 kPa | 1040.74 | –
413.16 K, 10624 kPa | 990.4 | –

Settings | surface tension liquid-gas [mN/m]
293.2 K | 37.87
298.2 K | 37.61
303.2 K | 37.36
308.2 K | 37.11
313.2 K | 36.88
318.2 K | 36.63
323.2 K | 36.42
328.2 K | 36.2
